These are literature values, as cited in article PMC11677126, “Synthesis and Structure–Activity Relationship of Thiourea Derivatives Against Leishmania amazonensis” (Pharmaceuticals, 2024).

Data set [1] deals with L. infantum amastigote. The following applies: cited from earlier work.
The subject of data set [2] is L. donovani amastigote. The following applies: cited from earlier work.
The test system of data set [3] is L. amazonensis promastigote. Also on record: method as in PMID 28966275. The following applies: cited from earlier work.
For data set [4], the system named is Leishmania amazonensis amastigotes. More on the design: method as in PMID 28966275. The following applies: read-out: IC50 (amastigote); cited from earlier work.

By IC50 is commonly meant the point on the concentration scale where inhibition reaches its midpoint. Consider `CC(C)Oc1cc(C(=O)Nc2cc(-c3ccccn3)n[nH]2)cc(C(=O)N2CCCC2)c1` [Compound 6], for which the concentration for half-maximal inhibition (IC50) was over 42.4 µM in data set [1] and at least 10.9 µM in data set [2].
`S=C(NCCc1ccccc1)Nc1ccc2c(c1)OCO2` [Compound 8]: the IC50 was 54.1 ± 6.77 µM in data set [3] and 70 µM in data set [4].
